Patent EP0394982A2, “Anthracycline derivatives with cytostatic activity” (BEHRINGWERKE Aktiengesellschaft, priority 1989, dated 1990)
≈ marks a conversion by molar mass, not a printed value. Read-outs that look alike come from different tables or passages of the source.

Test system: L1210 Leukämiezellen
Experiment: Colony formation of L1210 leukemia cells in soft agar (cytotoxicity in vitro)
Assay type: cell-based, Maus
Conditions: Mus musculus, colonies > 60 µm counted
Source text: Die zytostatische Wirksamkeit der erfindungsgemäßen Verbindungen wurde anhand von L1210 Leukämiezellen der Maus getestet. Hierzu wurde die Koloniebildung von L1210 Leukämiezellen in Agarplatten herangezogen. Diese Methode dient zum Nachweis des Einflusses der Testsubstanzen auf das Wachstumsverhalten der Zellen über 1 Stunde oder über mehrere Generationen. Bei einer Zellzykluszeit von 10-12 Stunden werden dabei in der Testzeit von 7 Tagen etwa 14 aufeinanderfolgende Generationen beobachtet. Die erfindungsgemäßen zytostatisch wirksamen Substanzen bewirken in diesem Test eine Reduktion der zu beobachtenden Koloniezahl gegenüber einer unbehandelten Kontrollprobe.
Verfahrensweise zur Ermittlung der Koloniebildung von L1210 Leukämiezellen in Soft-Agar
500 Leukämiezellen pro Platte wurden mit unterschiedlichen Konzentrationen der Testsubstanz 1 Stunde bei 37°C inkubiert. Anschließend wurden die Zellen zweimal mit McCoy5A-Medium gewaschen und schließlich in Petrischalen nach Zugabe von 0,3 % Agar ausgegossen. Kontrollen wurden lediglich mit frischem Medium inkubiert. Anstelle der einstündigen Inkubation wurden in manchen Fällen unterschiedliche Konzentrationen und Testsubstanzen der oberen Agarschicht zugemischt, um so eine kontinuierliche Exposition der Zellen über die gesamte Inkubationszeit zu erreichen. Nach Erstarren des Agars wurden die Platten im Brutschrank 7 Tage bei 37°C inkubiert (5 Vol.-% CO₂, 95 % relative Luftfeuchtigkeit). Anschließend wurde die Zahl der entstandenen Kolonien mit einem Durchmesser von mehr als 60 µm gezählt. Die Ergebnisse wurden angegeben als Koloniezahl in behandelten Agarplatten in Prozent der unbehandelten Kontrolle. Aus der so erhaltenen Dosiswirkungskurve wurde die IC₅₀ als Maß für die Wirksamkeit der Substanz ermittelt. Die Ergebnisse für die hier beschriebenen Verbindungen im Vergleich zu Adriamycin sind in Tabelle 1 zusammengefaßt.

[1] = L1210, 168 h, continuous exposure (substance mixed into upper agar layer), 7 days at 37°C, read-out: Dauerinkubation IC50
[2] = L1210, 1 h incubation at 37°C, cells washed, then 7 days in agar, read-out: 1h-Inkubation IC50

Question: How did the IC50 [1] turn out when `CC[C@@]1(O)C[C@H](O[C@H]2C[C@H](N(C)CC(=O)NN)[C@H](O)[C@H](C)O2)c2c(O)c3c(c(O)c2[C@H]1O)C(=O)c1cccc(O)c1C3=O` [Beispiel 1, 7-0-(3′-N-Hydrazinocarbonylmethyl-3′-N-methyl-α-L-daunosaminyl)-β-rhodomycinon] was run?
Answer: Its IC50 is 0.32 µg/mL (≈ 0.532 µM).

Question: What about the IC50 [2] of the same molecule?
Answer: The IC50 was 0.21 µg/mL (≈ 0.349 µM).

Question: Which results are given for `CC[C@@]1(O)C[C@H](O[C@H]2C[C@H](N(C)CC(=O)NCCN)[C@H](O)[C@H](C)O2)c2c(O)c3c(c(O)c2[C@H]1O)C(=O)c1cccc(O)c1C3=O` [Beispiel 2, 7-0-(3′-N-Ethylendiaminocarbonylmethyl-3′-N-methyl-α-L-daunosaminyl)-β-rhodomycinon]?
Answer: IC50 [1]: 0.35 µg/mL (≈ 0.556 µM); IC50 [2]: 1 µg/mL (≈ 1.59 µM)

Question: How did the IC50 [1] turn out when `CC[C@@]1(O)C[C@H](O[C@H]2C[C@H](N(C)CC(=O)NCCN(C)C)[C@H](O)[C@H](C)O2)c2c(O)c3c(c(O)c2[C@H]1O)C(=O)c1cccc(O)c1C3=O` [Beispiel 3] was run?
Answer: The IC50 was 0.12 µg/mL (≈ 0.182 µM).

Question: And the IC50 [2]?
Answer: Its IC50 is 0.26 µg/mL (≈ 0.395 µM).

Question: Which results are given for `CC[C@@]1(O)C[C@H](O[C@H]2C[C@H](N(C)CC(=O)NCCCCN)[C@H](O)[C@H](C)O2)c2c(O)c3c(c(O)c2[C@H]1O)C(=O)c1cccc(O)c1C3=O` [Beispiel 4]?
Answer: IC50 [1]: 0.35 µg/mL (≈ 0.532 µM); IC50 [2]: 1.3 µg/mL (≈ 1.98 µM)

Question: For `CC[C@@]1(O)C[C@H](O[C@H]2C[C@H](N(C)CC(=O)NCCc3c[nH]cn3)[C@H](O)[C@H](C)O2)c2c(O)c3c(c(O)c2[C@H]1O)C(=O)c1cccc(O)c1C3=O` [Beispiel 5, 7-O-(3′-N-Histaminocarbonylmethyl-3′-N-methyl-α-L-daunosaminyl)-β-rhodomycinon], which IC50 [1] is on record?
Answer: Its IC50 is 0.31 µg/mL (≈ 0.455 µM).

Question: What about the IC50 [2] of the same molecule?
Answer: Its IC50 is 1 µg/mL (≈ 1.47 µM).

Question: Which results are given for `CC[C@@]1(O)C[C@H](O[C@H]2C[C@H](N(C)CC(=O)NCCc3ccc(O)cc3)[C@H](O)[C@H](C)O2)c2c(O)c3c(c(O)c2[C@H]1O)C(=O)c1cccc(O)c1C3=O` [Beispiel 6, 7-O-(3′-N-Methyl-3′-N-tyraminocarbonylmethyl-α-L-daunosaminyl)-β-rhodomycinon]?
Answer: IC50 [1]: 0.41 µg/mL (≈ 0.58 µM); IC50 [2]: 1.3 µg/mL (≈ 1.84 µM)

Question: For `CC[C@@]1(O)C[C@H](O[C@H]2C[C@H](N(C)CC(=O)NCCc3c[nH]c4ccccc34)[C@H](O)[C@H](C)O2)c2c(O)c3c(c(O)c2[C@H]1O)C(=O)c1cccc(O)c1C3=O` [Beispiel 7, 7-O-(3′-N-Methyl-3′-N-tryptaminocarbonylmethyl-α-L-daunosaminyl)-β-rhodomycinon], which IC50 [1] is on record?
Answer: Its IC50 is 0.36 µg/mL (≈ 0.493 µM).

Question: What about the IC50 [2] of the same molecule?
Answer: Its IC50 is 1.2 µg/mL (≈ 1.64 µM).
